Reference: US20220133629A1, “FORMULATIONS FOR TREATMENT OF DRY EYE DISEASE” (Aldeyra Therapeutics, Inc., priority 2018, published 2022)

Test system: patients with dry eye disease
Assay: Phase 2b: overall efficacy on signs and symptoms
Format: in vivo, human
Description: In a Phase 2b clinical trial, the efficacy of Reproxalap Ophthalmic Solutions (0.25% and 0.1%) were evaluated in patients with dry eye disease (see the details in Example 1). […] The efficacy profile of Reproxalap Ophthalmic Solutions was evident as early as two weeks following treatment initiation. […] Efficacy Analysis • Evaluated baseline to weeks 2, 4, 8 and 12 change scores with reproxalap on DED sign and symptom endpoints (both pre-CAE and CAE endpoints). Each endpoint was analyzed at a two-sided alpha level of 0.05, and the overall type I error was not controlled for in this investigative study. • Evaluated effect size of baseline to weeks 2, 4, 8 and 12 change scores of reproxalap vs vehicle on DED sign and symptom endpoints (both pre-CAE and CAE endpoints) to confirm the endpoint selection for primary outcome parameters and sample size for Phase 3 studies with reproxalap. • Sub-group analyses on effect size of baseline to weeks 2, 4, 8 and 12 change scores of reproxalap vs vehicle on DED sign and symptom endpoints (both pre-CAE and CAE endpoints) [Subgroups were prospectively detailed in the Statistical Analysis Plan (SAP)].

CC(C)(O)c1nc2ccc(Cl)cc2cc1N [Reproxalap, reproxalap]
Dose response between 0.1% and 0.25% dose strengths: dose response
